Measurements taken from PMC5949348, “The Metabolism of Separase Inhibitor Sepin-1 in Human, Mouse, and Rat Liver Microsomes” (Frontiers in Pharmacology, 2018).
Several values for one entry are separate records, joined by “and”; a condition that tells them apart may be missing. Identical values can stand only once. Like-named read-outs stand apart in the source and are kept apart here.

Experiments:
CYP1A2 = target: T1, CYP1A2 (Homo sapiens, UniProt P05177); assay: Inhibition of sepin-1 on CYP1A2; type: in vitro ADME
T1 construct: purchased XenoTech
T1 sequence (P05177 1-516): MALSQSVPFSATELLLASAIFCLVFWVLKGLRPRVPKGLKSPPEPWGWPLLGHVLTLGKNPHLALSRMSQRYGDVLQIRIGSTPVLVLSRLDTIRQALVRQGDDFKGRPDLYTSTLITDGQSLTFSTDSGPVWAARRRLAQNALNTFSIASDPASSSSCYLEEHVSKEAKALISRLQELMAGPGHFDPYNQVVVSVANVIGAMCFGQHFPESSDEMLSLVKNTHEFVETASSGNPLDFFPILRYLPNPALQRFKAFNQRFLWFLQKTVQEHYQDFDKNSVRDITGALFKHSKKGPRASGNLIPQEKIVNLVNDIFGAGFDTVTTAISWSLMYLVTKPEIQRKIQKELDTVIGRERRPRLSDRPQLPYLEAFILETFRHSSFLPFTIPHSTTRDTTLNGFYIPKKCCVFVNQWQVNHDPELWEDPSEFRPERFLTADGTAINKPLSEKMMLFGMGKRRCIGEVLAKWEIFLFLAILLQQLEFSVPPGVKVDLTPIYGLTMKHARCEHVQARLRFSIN
Description: (§1) Incubations were performed in 1× PBS (pH 7.4), containing 0, 0.156, 0.312, 0.625, 1.25, 2.5, 5, 10, 20, or 40 μM sepin-1, 2 pmol of each cDNA-expressed P450 enzymes, and corresponding substrates: CYP1A2 (phenacetin, 40 μM, 20 min incubation), 2B6 (efavirenz, 20 μM, 30 min), 2C8 (paclitaxel, 10 μM, 30 min), 2C9 (diclofenac, 5 μM, 15 min), 2C19 [(S)-mephenytoin, 40 μM, 20 min], 2D6 (dextromethorphan, 5 μM, 15 min), and CYP3A4 (midazolam, 3 μM, 10 min) in a final volume of 190 μl. After 5 min of pre-incubation at 37°C, the reaction was initiated by adding 10 μl of 20 mM NADPH (final concentration 1.0 mM) and continued for a specific time as presented above with gentle shaking. Incubations without sepin-1 were used as controls. Reactions were terminated by the addition of 200 μl of ice-cold methanol, vortexing for 30 s, and centrifuging at 15,000 × g for 15 min. Each supernatant was transferred to an auto sampler vial and 5.0 μl was injected on to UHPLC coupled with a QQQMS system for the specific metabolite analysis. A MRM method was used. Incubations were conducted in duplicate. Positive controls were performed by using a known specific inhibitor for each of the isoform assays (Supplementary Table S1). […]

CYP2B6 = target: T2, CYP2B6 (Homo sapiens, UniProt P20813); assay: Inhibition of sepin-1 on CYP2B6; type: in vitro ADME
T2 construct: purchased XenoTech
T2 sequence (P20813 1-491): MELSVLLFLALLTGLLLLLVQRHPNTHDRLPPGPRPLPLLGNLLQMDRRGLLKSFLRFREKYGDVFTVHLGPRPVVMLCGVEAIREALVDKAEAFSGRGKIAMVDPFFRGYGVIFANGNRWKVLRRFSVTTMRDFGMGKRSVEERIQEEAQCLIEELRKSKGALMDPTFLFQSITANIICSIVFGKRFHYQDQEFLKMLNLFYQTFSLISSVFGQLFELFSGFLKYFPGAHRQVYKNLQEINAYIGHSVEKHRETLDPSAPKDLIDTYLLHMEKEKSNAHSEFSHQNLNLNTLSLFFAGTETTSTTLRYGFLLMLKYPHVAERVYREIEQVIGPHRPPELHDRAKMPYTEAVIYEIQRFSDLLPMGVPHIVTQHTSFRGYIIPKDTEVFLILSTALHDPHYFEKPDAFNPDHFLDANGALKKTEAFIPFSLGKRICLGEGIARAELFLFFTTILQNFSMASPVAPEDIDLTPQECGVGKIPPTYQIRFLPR
Description: as §1

CYP2C8 = target: T3, CYP2C8 (Homo sapiens, UniProt P10632); assay: Inhibition of sepin-1 on CYP2C8; type: in vitro ADME
T3 construct: purchased XenoTech
T3 sequence (P10632 1-490): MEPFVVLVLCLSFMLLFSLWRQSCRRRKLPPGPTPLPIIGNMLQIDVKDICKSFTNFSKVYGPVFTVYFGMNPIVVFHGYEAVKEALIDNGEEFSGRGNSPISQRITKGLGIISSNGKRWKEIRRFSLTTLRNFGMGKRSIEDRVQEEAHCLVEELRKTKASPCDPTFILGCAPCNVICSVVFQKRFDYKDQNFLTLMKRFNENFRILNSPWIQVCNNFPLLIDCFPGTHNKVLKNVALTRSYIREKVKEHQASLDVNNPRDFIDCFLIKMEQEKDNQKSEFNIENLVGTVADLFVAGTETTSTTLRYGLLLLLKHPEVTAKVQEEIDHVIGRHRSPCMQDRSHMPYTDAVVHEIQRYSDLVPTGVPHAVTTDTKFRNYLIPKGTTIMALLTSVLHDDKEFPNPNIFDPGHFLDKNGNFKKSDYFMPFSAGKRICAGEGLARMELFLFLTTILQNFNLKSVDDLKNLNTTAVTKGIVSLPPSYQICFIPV
Description: as §1

CYP2C9 = target: T4, CYP2C9 (Homo sapiens, UniProt P11712); assay: Inhibition of sepin-1 on CYP2C9; type: in vitro ADME
T4 construct: purchased XenoTech
Description: as §1

CYP2D6 = target: T5, CYP2D6 (Homo sapiens, UniProt P10635); assay: Inhibition of sepin-1 on CYP2D6; type: in vitro ADME
T5 construct: purchased XenoTech
Description: as §1

CYP3A4 = target: T6, CYP3A4 (Homo sapiens, UniProt P08684); assay: Inhibition of sepin-1 on CYP3A4; type: in vitro ADME
T6 construct: purchased XenoTech
Description: as §1

separase = system: separase; design: method as in Zhang et al., 2014; conditions: ref Zhang et al., 2014; cited from earlier work
[1] = system: cancer cell lines including breast cancer, leukemia, and neuroblastoma; design: method as in Zhang et al., 2014; conditions: ref Zhang et al., 2014; cited from earlier work
breast cancer xenografts = system: breast cancer xenografts; design: method as in Zhang et al., 2014; conditions: mice; ref Zhang et al., 2014; cited from earlier work

T5 sequence (P10635 whole entry): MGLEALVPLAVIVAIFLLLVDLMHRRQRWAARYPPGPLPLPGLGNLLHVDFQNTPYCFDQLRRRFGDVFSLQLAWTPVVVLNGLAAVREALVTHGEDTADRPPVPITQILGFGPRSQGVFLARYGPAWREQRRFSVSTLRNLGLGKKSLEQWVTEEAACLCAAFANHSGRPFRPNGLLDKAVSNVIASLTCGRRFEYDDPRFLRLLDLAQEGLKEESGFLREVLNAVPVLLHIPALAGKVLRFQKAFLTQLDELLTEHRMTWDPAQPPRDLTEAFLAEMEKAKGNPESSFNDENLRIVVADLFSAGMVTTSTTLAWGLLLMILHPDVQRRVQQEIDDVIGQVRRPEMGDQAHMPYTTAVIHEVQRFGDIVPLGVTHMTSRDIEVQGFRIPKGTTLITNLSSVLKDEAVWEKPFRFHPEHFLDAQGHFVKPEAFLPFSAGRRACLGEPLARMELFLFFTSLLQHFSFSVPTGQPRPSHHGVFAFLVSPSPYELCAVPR
T4 sequence (P11712 whole entry): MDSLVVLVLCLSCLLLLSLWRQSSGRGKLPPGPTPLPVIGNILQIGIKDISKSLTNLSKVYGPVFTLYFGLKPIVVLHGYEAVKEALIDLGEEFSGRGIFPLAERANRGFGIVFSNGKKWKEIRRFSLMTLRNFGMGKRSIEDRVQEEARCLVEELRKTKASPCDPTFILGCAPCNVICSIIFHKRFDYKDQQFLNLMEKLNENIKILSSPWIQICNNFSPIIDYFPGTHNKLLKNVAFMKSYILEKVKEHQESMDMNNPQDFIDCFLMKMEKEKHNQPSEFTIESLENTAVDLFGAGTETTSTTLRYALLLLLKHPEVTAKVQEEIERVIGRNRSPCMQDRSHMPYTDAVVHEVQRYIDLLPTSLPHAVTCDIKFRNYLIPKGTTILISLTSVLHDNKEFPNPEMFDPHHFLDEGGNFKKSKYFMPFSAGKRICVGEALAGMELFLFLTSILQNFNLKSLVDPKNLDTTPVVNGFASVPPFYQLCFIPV
T6 sequence (P08684 whole entry): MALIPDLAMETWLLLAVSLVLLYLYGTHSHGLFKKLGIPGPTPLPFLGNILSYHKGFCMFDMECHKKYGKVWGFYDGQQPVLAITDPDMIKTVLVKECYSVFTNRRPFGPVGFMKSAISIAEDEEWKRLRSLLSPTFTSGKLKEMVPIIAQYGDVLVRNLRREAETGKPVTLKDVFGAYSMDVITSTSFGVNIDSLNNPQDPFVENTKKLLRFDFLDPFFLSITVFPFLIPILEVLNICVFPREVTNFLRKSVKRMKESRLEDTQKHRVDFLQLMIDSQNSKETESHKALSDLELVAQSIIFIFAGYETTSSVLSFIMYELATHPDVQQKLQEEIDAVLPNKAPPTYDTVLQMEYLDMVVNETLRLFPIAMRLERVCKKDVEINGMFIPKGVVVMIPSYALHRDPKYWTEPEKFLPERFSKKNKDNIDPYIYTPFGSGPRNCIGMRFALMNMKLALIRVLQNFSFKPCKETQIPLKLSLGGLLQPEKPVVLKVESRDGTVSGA

IC50 (CYP1A2; FDA classification bands, read-out: Inhibition potency class on CYP1A2): 1 to 10 µM
IC50 (CYP1A2; substrate phenacetin 40 μM, 20 min, metabolite acetaminophen, co-incubation, read-out: IC50 on CYP1A2): < 10 µM and 8.1 µM
Inhibition potency class on CYP2B6 (CYP2B6; FDA classification bands): weak inhibition
IC50 (CYP2B6; substrate efavirenz 20 μM, 30 min, metabolite 8-O-efavirenz, co-incubation): > 10 µM and 14.5 µM
Inhibition potency class on CYP2C8 (CYP2C8; FDA classification bands): weak inhibition
IC50 (CYP2C8; substrate paclitaxel 10 μM, 30 min, metabolite 6-O-paclitaxel, co-incubation): > 10 µM and 17.8 µM
Inhibition potency class on CYP2C9 (CYP2C9; FDA classification bands): weak inhibition
IC50 (CYP2C9; substrate diclofenac 5 μM, 15 min, metabolite 4-O-diclofenac, co-incubation): > 10 µM and 21.3 µM
Inhibition potency class on CYP2D6 (CYP2D6; FDA classification bands): weak inhibition
IC50 (CYP2D6; substrate dextromethorphan 5 μM, 15 min, O-demethylation, co-incubation): > 10 µM and 42.5 µM
IC50 (CYP3A4; FDA classification bands, read-out: Inhibition potency class on CYP3A4): 1 to 10 µM
IC50 (CYP3A4; substrate midazolam 3 μM, 10 min, metabolite 1-O-midazolam, co-incubation, read-out: IC50 on CYP3A4): < 10 µM and 8.7 µM
Compound: CC1(C)[N+]([O-])=c2ccc([N+](=O)[O-])cc2=[N+]1[O-] [Sepin-1, 2,2-dimethyl-5-nitro-2H-benzimidazole-1,3-dioxide]
Inhibition of separase activity (mode) (separase): inhibits separase activity in a non-competitive way
Inhibition of cancer cell line growth [1]: selectively inhibits the growth of cancer cell lines
Inhibition of breast cancer xenograft growth (breast cancer xenografts): inhibits the growth of breast cancer xenografts in mice
